Among the data in US20080015217A1, “ANTIOXIDANT COMBINATIONS FOR USE IN RUMINANT FEED RATIONS” (NOVUS INTERNATIONAL, INC., priority 2006, published 2008) are OSI induction time and peroxide values values, retold here.

The structures appear in SMILES notation.

The nature of test [1]: Oil stability index (OSI) method, soybean oil. The settings on record: 500 ppm antioxidant, FIG. 1.
Test [2] is described as follows: Active oxygen method (AOM), soybean oil. The conditions noted are these: soybean oil subjected to oxidative stress, 500 ppm antioxidant, FIG. 1.

Turning to `CCOc1ccc2c(c1)C(C)=CC(C)(C)N2` [ETX, 6-ethoxy-1,2-dihydro-2,2,4-trimethylquinoline], the OSI induction time entry in test [1] is recorded as “about 6 hr”. Moreover, in test [2], the peroxide values result was “about 11 meq”.
